Tests used:
[1] = tested on: Glomerella lagenarium (Colletotrichum lagenarium); test: Glomerella lagenarium (Colletotrichum lagenarium) / liquid culture (anthracnose); assay type: cell-based; details: Colletotrichum orbiculare, PDB potato dextrose broth, 24° C., 3-4 days after application, read-out: control of Glomerella lagenarium (inhibition of growth, photometric)
In short: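 Fungal growth inhibition measured photometrically 3-4 days post-application at 24° C. Spores were mixed directly into potato dextrose broth and dispensed onto test compound supplied in DMSO.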

[2] = tested on: Monographella nivalis (Microdochium nivale); test: Monographella nivalis (Microdochium nivale) / liquid culture (foot rot cereals); assay type: cell-based; details: PDB potato dextrose broth, 24° C., 4-5 days after application, read-out: control of Monographella nivalis (inhibition of growth, photometric)
In short: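 Growth inhibition measured by photometry 4-5 days post-application at 24° C. Compound was dispensed as DMSO solution, then PDB broth containing conidia from cryogenic storage was added.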

[3] = tested on: Puccinia recondita f. sp. tritici; test: Puccinia recondita f. sp. tritici / wheat / leaf disc preventative (brown rust); assay type: in vivo; details: foliar, wheat leaf segments cv. Kanzler, inoculated 1 day after application, assessed 7-9 days after application, read-out: control of Puccinia recondita f. sp. tritici, preventative (percent disease control compared to untreated)
Experimental: Example B11: Puccinia recondita f. sp. tritici/Wheat/Leaf Disc Preventative (Brown Rust) Wheat leaf segments cv. Kanzler are placed on agar in multiwell plates (24-well format) and sprayed with the formulated test compound diluted in water. The leaf disks are inoculated with a spore suspension of the fungus 1 day after application. The inoculated leaf segments are incubated at 19° C. and 75% rh under a light regime of 12 h light/12 h darkness in a climate cabinet and the activity of a compound is assessed as percent disease control compared to untreated when an appropriate level of disease damage appears in untreated check leaf segments (7-9 days after application). […] […]-190.

[4] = tested on: Mycosphaerella graminicola (Septoria tritici); test: Mycosphaerella graminicola (Septoria tritici) / liquid culture (Septoria blotch); assay type: cell-based; details: Zymoseptoria tritici, PDB potato dextrose broth, 24° C., 4-5 days after application, read-out: control of Mycosphaerella graminicola (inhibition of growth, photometric)
In short: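 Fungal growth inhibition was read photometrically 4-5 days after application. Compound was dosed from a DMSO solution into liquid cultures of spores in potato dextrose broth, incubated at 24° C.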

[5] = tested on: Blumeria graminis f. sp. tritici (Erysiphe graminis f. sp. tritici); test: Blumeria graminis f. sp. tritici / wheat / leaf disc preventative (powdery mildew on wheat); assay type: in vivo; details: foliar, wheat leaf segments cv. Kanzler, inoculated 1 day after application, assessed 6-8 days after application, read-out: control of Blumeria graminis f. sp. tritici (percent disease control compared to untreated)
Text: Example B4: Blumeria graminis f. sp. tritici (Erysiphe graminis f. sp. tritici)/Wheat/Leaf Disc Preventative (Powdery Mildew on Wheat) Wheat leaf segments cv. Kanzler are placed on agar in a multiwell plate (24-well format) and sprayed with the formulated test compound diluted in water. The leaf disks are inoculated by shaking powdery mildew infected plants above the test plates 1 day after application. […] […]-192.

[6] = tested on: Magnaporthe grisea (Pyricularia oryzae); test: whole plant or invertebrate; assay type: in vivo; details: foliar, read-out: control of Magnaporthe grisea (percent disease control compared to untreated)

CC1(C)CCC1NC(=O)c1nc(Nc2cc(F)nc(F)c2)ccc1O (centres unmarked) [Compound P-1, 6-[(2,6-difluoro-4-pyridyl)amino]-N-(2,2-dimethylcyclobutyl)-3-hydroxy-pyridine-2-carboxamide]
inhibition at 20 ppm [1]: ≥ 80%
inhibition at 20 ppm [2]: ≥ 80%
pest or weed control at 200 ppm [3]: ≥ 80%
inhibition at 20 ppm [4]: ≥ 80%

COc1ccc(N(C#N)c2cc(F)nc(F)c2)nc1C(=O)NC1CCC1(C)C (centres unmarked) [Compound P-21, 6-[cyano-(2,6-difluoro-4-pyridyl)amino]-N-(2,2-dimethylcyclobutyl)-3-methoxy-pyridine-2-carboxamide]
pest or weed control at 200 ppm [5]: ≥ 80%
pest or weed control at 200 ppm [3]: ≥ 80%
pest or weed control at 200 ppm [6]: ≥ 80%

COc1ccc(Nc2cc(F)nc(F)c2)nc1C(=O)NCC(C)(C)C [Compound P-30, 6-[(2,6-difluoro-4-pyridyl)amino]-N-(2,2-dimethylpropyl)-3-methoxy-pyridine-2-carboxamide]
inhibition at 20 ppm [1]: ≥ 80%
pest or weed control at 200 ppm [5]: ≥ 80%
pest or weed control at 200 ppm [3]: ≥ 80%
pest or weed control at 200 ppm [6]: ≥ 80%
inhibition at 20 ppm [4]: ≥ 80%

COc1ccc(Nc2cc(F)nc(F)c2)nc1C(=O)NCCc1ccccc1 [Compound P-31, 6-[(2,6-difluoro-4-pyridyl)amino]-3-methoxy-N-(2-phenylethyl)pyridine-2-carboxamide]
pest or weed control at 200 ppm [3]: ≥ 80%

COc1ccc(Nc2cc(F)nc(F)c2)nc1C(=O)NC1CCc2cc(C(F)(F)F)ccc21 (centres unmarked) [Compound P-47, 6-[(2,6-difluoro-4-pyridyl)amino]-3-methoxy-N-[5-(trifluoromethyl)indan-1-yl]pyridine-2-carboxamide]
inhibition at 20 ppm [1]: ≥ 80%
inhibition at 20 ppm [2]: ≥ 80%
pest or weed control at 200 ppm [3]: ≥ 80%
pest or weed control at 200 ppm [6]: ≥ 80%
inhibition at 20 ppm [4]: ≥ 80%

COc1ccc(Nc2cnsc2)nc1C(=O)NCc1cnc(C(F)(F)F)nc1 [Compound P-80, 6-(isothiazol-4-ylamino)-3-methoxy-N-[[2-(trifluoromethyl)pyrimidin-5-yl]methyl]pyridine-2-carboxamide]
pest or weed control at 200 ppm [3]: ≥ 80%

COc1ccc(Nc2cc(F)nc(F)c2)nc1C(=O)NC1(C2CCCCC2)CC1 [Compound P-88, N-(1-cyclohexylcyclopropyl)-6-[(2,6-difluoro-4-pyridyl)amino]-3-methoxy-pyridine-2-carboxamide]
inhibition at 20 ppm [1]: ≥ 80%
pest or weed control at 200 ppm [3]: ≥ 80%
pest or weed control at 200 ppm [6]: ≥ 80%

COc1ccc(Nc2cc(F)nc(F)c2)nc1C(=O)NC1(C)CC1 [Compound P-92, 6-[(2,6-difluoro-4-pyridyl)amino]-3-methoxy-N-(1-methylcyclopropyl)pyridine-2-carboxamide]
pest or weed control at 200 ppm [5]: ≥ 80%
pest or weed control at 200 ppm [3]: ≥ 80%

COc1ccc(Nc2cncc(F)c2)nc1C(=O)NCC(C)(C)C [Compound P-105, N-(2,2-dimethylpropyl)-6-[(5-fluoro-3-pyridyl)amino]-3-methoxy-pyridine-2-carboxamide]
pest or weed control at 200 ppm [5]: ≥ 80%
pest or weed control at 200 ppm [3]: ≥ 80%
pest or weed control at 200 ppm [6]: ≥ 80%

CC(C)(C)NC(=O)c1cccc(Nc2cc(F)nc(F)c2)n1 [Compound P-114, N-tert-butyl-6-[(2,6-difluoro-4-pyridyl)amino]pyridine-2-carboxamide]
inhibition at 20 ppm [1]: ≥ 80%
pest or weed control at 200 ppm [5]: ≥ 80%
inhibition at 20 ppm [2]: ≥ 80%
pest or weed control at 200 ppm [3]: ≥ 80%
inhibition at 20 ppm [4]: ≥ 80%

COc1ccc(Nc2cc(F)cc(F)c2)[n+]([O-])c1C(=O)NC(C)(C)C [Compound P-117, N-tert-butyl-6-(3,5-difluoroanilino)-3-methoxy-1-oxido-pyridin-1-ium-2-carboxamide]
inhibition at 20 ppm [1]: ≥ 80%
pest or weed control at 200 ppm [5]: ≥ 80%
inhibition at 20 ppm [2]: ≥ 80%
pest or weed control at 200 ppm [3]: ≥ 80%
pest or weed control at 200 ppm [6]: ≥ 80%
inhibition at 20 ppm [4]: ≥ 80%

COc1ccc(Nc2ccnc(F)c2)nc1C(=O)NCC(C)(C)C [Compound P-136, N-(2,2-dimethylpropyl)-6-[(2-fluoro-4-pyridyl)amino]-3-methoxy-pyridine-2-carboxamide]
inhibition at 20 ppm [1]: ≥ 80%
pest or weed control at 200 ppm [3]: ≥ 80%

CCc1cccc(Nc2ccc(OC)c(C(=O)NCC(C)(C)C)n2)c1 [Compound P-137, N-(2,2-dimethylpropyl)-6-(3-ethylanilino)-3-methoxy-pyridine-2-carboxamide]
inhibition at 20 ppm [1]: ≥ 80%
pest or weed control at 200 ppm [3]: ≥ 80%

COc1ccc(Nc2cc(C)cc(C#N)c2)nc1C(=O)NCC(C)(C)C [Compound P-143, 6-(3-cyano-5-methyl-anilino)-N-(2,2-dimethylpropyl)-3-methoxy-pyridine-2-carboxamide]
pest or weed control at 200 ppm [3]: ≥ 80%

COc1ccc(Nc2cc(F)nc(F)c2)nc1C(=O)NC(C)C(C)C (centres unmarked) [Compound P-167, 6-[(2,6-difluoro-4-pyridyl)amino]-N-(1,2-dimethylpropyl)-3-methoxy-pyridine-2-carboxamide]
pest or weed control at 200 ppm [5]: ≥ 80%
pest or weed control at 200 ppm [3]: ≥ 80%

COc1ccc(Nc2cc(F)nc(F)c2)nc1C(=O)NC(C)C(C)(C)C (centres unmarked) [Compound P-169, 6-[(2,6-difluoro-4-pyridyl)amino]-3-methoxy-N-(1,2,2-trimethylpropyl)pyridine-2-carboxamide]
pest or weed control at 200 ppm [5]: ≥ 80%
pest or weed control at 200 ppm [3]: ≥ 80%

COc1ccc(Nc2cc(F)nc(F)c2)nc1C(=O)NC(C)(C)C(C)(C)C [Compound P-174, 6-[(2,6-difluoro-4-pyridyl)amino]-3-methoxy-N-(1,1,2,2-tetramethylpropyl)pyridine-2-carboxamide]
pest or weed control at 200 ppm [3]: ≥ 80%
inhibition at 20 ppm [4]: ≥ 80%

COc1ccc(Nc2cc(F)cc(F)c2)nc1C(=O)NC1(c2cccc(Cl)n2)CCC1 [Compound P-177, N-[1-(6-chloro-2-pyridyl)cyclobutyl]-6-(3,5-difluoroanilino)-3-methoxy-pyridine-2-carboxamide]
inhibition at 20 ppm [1]: ≥ 80%
pest or weed control at 200 ppm [5]: ≥ 80%
inhibition at 20 ppm [2]: ≥ 80%
pest or weed control at 200 ppm [3]: ≥ 80%
pest or weed control at 200 ppm [6]: ≥ 80%
inhibition at 20 ppm [4]: ≥ 80%

COc1ccc(Nc2cc(F)nc(F)c2)nc1C(=O)NC1(C(C)C)CCC1 [Compound P-181, 6-[(2,6-difluoro-4-pyridyl)amino]-N-(1-isopropylcyclobutyl)-3-methoxy-pyridine-2-carboxamide]
pest or weed control at 200 ppm [5]: ≥ 80%
inhibition at 20 ppm [2]: ≥ 80%
pest or weed control at 200 ppm [3]: ≥ 80%
inhibition at 20 ppm [4]: ≥ 80%

COc1ccc(Nc2cc(F)nc(F)c2)nc1C(=O)NC1(C2CCC2)CCC1 [Compound P-182, N-(1-cyclobutylcyclobutyl)-6-[(2,6-difluoro-4-pyridyl)amino]-3-methoxy-pyridine-2-carboxamide]
pest or weed control at 200 ppm [5]: ≥ 80%
pest or weed control at 200 ppm [3]: ≥ 80%

CCC1(NC(=O)c2nc(Nc3cc(F)nc(F)c3)ccc2OC)CCC1 [Compound P-183, 6-[(2,6-difluoro-4-pyridyl)amino]-N-(1-ethylcyclobutyl)-3-methoxy-pyridine-2-carboxamide]
pest or weed control at 200 ppm [5]: ≥ 80%
inhibition at 20 ppm [2]: ≥ 80%
pest or weed control at 200 ppm [3]: ≥ 80%
inhibition at 20 ppm [4]: ≥ 80%

COc1ccc(Nc2cc(F)nc(F)c2)nc1C(=O)NC1(c2cccc(Cl)n2)CCC1 [Compound P-184, N-[1-(6-chloro-2-pyridyl)cyclobutyl]-6-[(2,6-difluoro-4-pyridyl)amino]-3-methoxy-pyridine-2-carboxamide]
pest or weed control at 200 ppm [3]: ≥ 80%

COc1ccc(Nc2cc(F)cc(F)c2)nc1C(=O)NC1CC(c2ccc(Cl)cc2)C1 (centres unmarked) [Compound P-187, N-[3-(4-chlorophenyl)cyclobutyl]-6-(3,5-difluoroanilino)-3-methoxy-pyridine-2-carboxamide]
inhibition at 20 ppm [1]: ≥ 80%
inhibition at 20 ppm [2]: ≥ 80%
pest or weed control at 200 ppm [3]: ≥ 80%
inhibition at 20 ppm [4]: ≥ 80%

COc1ccc(Nc2cc(F)nc(F)c2)nc1C(=O)NC1CC(c2ccc(Cl)cc2)C1 (centres unmarked) [Compound P-188]
pest or weed control at 200 ppm [3]: ≥ 80%

From patent US12458021B2, “Microbiocidal derivatives” (SYNGENTA CROP PROTECTION AG, priority 2019, dated 2025)
